Measured values reported in US20260364184A1, “COMPOUND BASED ON OXOISOINDOLINYL-SUBSTITUTED TETRAHYDROPYRIMIDINE-DIONE AND USE THEREOF” (GLUETACS THERAPEUTICS (SHANGHAI) CO., LTD., priority 2023, published 2026).
Where two headings read alike, the source gives them in different places. Blank lines part the entries; values can stand above or below the molecule they belong to.

Tests used:
[1] = test system: Human diffuse large B-cell lymphoma cell line (WSU-DLCL2); test: Inhibition of WSU-DLCL2 cell proliferation (CellTiter luminescent viability); type: cell-based
Description: (§1) The tumor cells used herein were cultured in a cell culture medium listed in table 3 at 37 °C in an incubator with 5% CO2. Prior to experimentation, all cell lines used were correctly identified by STR profiling, and tested negative for mycoplasma contamination using a mycoplasma detection kit through routine screenings.
(§2) The IC50 values of the compounds of the present disclosure (including the compounds in Table 1, Table 2, and Examples 1-468) were determined using the CellTiter-Meiluncell Luminescent Cell Viability Assay Kit from Dalian Meilun Biotech Co., Ltd. The detailed procedure is as follows: Tumor cells were seeded in 96-well cell culture plates at the densities specified in Table 4. On the following day, the test compounds of the present disclosure were subjected to serial dilution. The dilution can be performed according to one of the following two methods: • (1) The first dilution method: The test compounds of the present disclosure (including the compounds in Table 1, Table 2, and Examples 1-468) were subjected to 5-fold serial dilutions starting from a highest concentration of 2000 μM, resulting in a total of 9 concentrations from high to low (2000, 400, 80, 16, 3.2, 0.64, 0.128, 0.0256, 0.00512 μM). Subsequently, 0.5 μL of the test compound dilution was transferred into the 96-well plate containing the cells, with each well containing 100 μL of cell culture medium. […] Into the 96-well plate, the diluted test compounds and corresponding detection reagents were added, resulting in final test compound concentrations of 500 nM and 10 nM, respectively. The experimental procedure is described below using the diluted 2 μM test compound as an example.
(§3) 0.5 μL of the aforementioned diluted compound of the present disclosure (including the compounds in Table 1, Table 2, and Examples 1-468) was added to the seeded cells in 100 μL of medium, yielding a final test compound concentration of 10 nM. After the cells were treated with the compounds of the present disclosure for a specified period, the cell viability assay reagent was added to the culture medium according to the kit's instructions to determine cell viability. […] All controls were treated using the same procedure as the compounds of the present disclosure. The growth inhibition curves for the compounds of the present disclosure were plotted using Prism GraphPad software, and the IC50 values were calculated therefrom.

[2] = target: T1, human Cereblon WT GST-tagged protein (CRBN) (Homo sapiens, UniProt Q96SW2); test: CRBN binding by HTRF (Cereblon binding kit)
T1 construct: purchased CISBIO 64BDCRBNPEH
T1 sequence (Q96SW2 whole entry): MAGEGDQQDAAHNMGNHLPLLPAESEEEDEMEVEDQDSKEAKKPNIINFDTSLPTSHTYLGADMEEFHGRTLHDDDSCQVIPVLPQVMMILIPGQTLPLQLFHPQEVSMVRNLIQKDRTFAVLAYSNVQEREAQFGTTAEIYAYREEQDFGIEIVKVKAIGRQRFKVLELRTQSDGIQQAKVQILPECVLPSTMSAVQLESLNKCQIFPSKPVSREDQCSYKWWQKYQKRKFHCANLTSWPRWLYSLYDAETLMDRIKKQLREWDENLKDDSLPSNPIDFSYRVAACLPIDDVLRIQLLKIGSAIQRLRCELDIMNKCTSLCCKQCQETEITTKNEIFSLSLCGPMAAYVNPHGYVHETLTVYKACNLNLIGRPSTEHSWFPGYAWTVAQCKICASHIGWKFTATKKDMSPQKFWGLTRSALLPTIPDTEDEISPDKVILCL
Outline: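 GST-tagged human Cereblon WT was incubated 3 h at room temperature with compound, thalidomide-Re tracer and Eu anti-GST antibody. Final compound concentrations were 10 to 0.00064 µM (7 points) or 2 and 0.5 µM. Inhibition rate was calculated from HTRF 665/620 nm ratios versus solvent and blank controls.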

[3] = test system: Human myeloid monocytic leukemia cell line (MV-4-11); test: Inhibition of MV-4-11 cell proliferation (CellTiter luminescent viability); type: cell-based; settings: for inhibition at 0.01 µM / inhibition at 0.5 µM: Homo sapiens, MV4-11; for inhibition at 0.01 µM: read-out: Inhibition Rate at 10 nM (%); for inhibition at 0.5 µM: read-out: Inhibition Rate at 500 nM (%)
Outline: (§4)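 IC50 is fitted from luminescent viability (CellTiter-Meiluncell) curves. Nine-point, 5-fold dilution series (top stock 2000 μM) are added at 0.5 μL per 100 μL medium to cells plated the day before, with growth at 37 °C and 5% CO2.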

[4] = test system: Human Acute T Lymphoblastic Leukemia Cells (Molt-4); test: Inhibition of Molt-4 cell proliferation (CellTiter luminescent viability); type: cell-based; settings: for Inhibition Rate at 10 nM (%) / Inhibition Rate at 500 nM (%): Molt-4
[5] = test system: Human non-small cell lung cancer cell line NCI-H2228; test: Inhibition of H2228 cell proliferation (CellTiter luminescent viability); settings: Table IB2, ALK inhibitor-based, 96 hours
Description: as §1, §2, §3

[6] = test system: Human large cell immunoblastic lymphoma cell line SR; test: Inhibition of SR cell proliferation (CellTiter luminescent viability); type: cell-based; settings: 96 hours
Outline: as §4

[7] = test system: Human T lymphocytic leukemia cell line (Jurkat); test: Inhibition of Jurkat cell proliferation (CellTiter luminescent viability); type: cell-based; settings: Table IC1, BTK inhibitor-based, 96 hours, read-out: Inhibitory activity (IC50, nM) on tumor cell proliferation, Jurkat
[8] = test system: Human gastric cancer cell line MGC803; test: Inhibition of MGC803 tumor cell proliferation (CellTiter luminescent viability); type: cell-based; settings: Table IC1, BTK inhibitor-based; MGC803, 96 hours; read-out: Inhibitory activity (IC50, nM) on tumor cell proliferation, MGC803
Description: as §1, §2, §3

[9] = test system: Human non-small cell lung cancer cell line NCI-H1975; test: Inhibition of H1975 cell proliferation (CellTiter luminescent viability); type: cell-based; settings: Table IC1, BTK inhibitor-based; H1975, 96 hours; read-out: Inhibitory activity (IC50, nM) on tumor cell proliferation, H1975
Outline: as §4

[10] = test system: Human Multiple myeloma cell line (MM.1S); test: Inhibition of MM.1S cell proliferation (CellTiter luminescent viability); type: cell-based; settings: Table IC1, BTK inhibitor-based, 96 hours, read-out: Inhibitory activity (IC50, nM) on tumor cell proliferation, MM.1S
Outline: as §4

[11] = test system: JEKO-1; test: Inhibition of JEKO-1 cell proliferation (CellTiter luminescent viability); type: cell-based, human; settings: Table IC1, BTK inhibitor-based; JEKO-1, 96 hours; read-out: Inhibitory activity (IC50, nM) on tumor cell proliferation, JEKO-1
Description: as §1, §2, §3

inhibition at 0.5 µM ([2]; 0.5 μM, read-out: Inhibition Rate at 0.5 μM (%)): 20 to 30%
inhibition at 2 µM ([2]; 2 μM, read-out: Inhibition Rate at 2 μM (%)): 53 to 60%
Structure (SMILES): C[C@@H]1CNC(=O)c2cc3ccc(C(=O)Nc4cnn(Cc5ccc(N6CCN(Cc7ccc8c(c7)CN(N7CCC(=O)NC7=O)C8=O)CC6)cc5)c4)nc3n21 [GT-08149, (R)—N-(1-(4-(4-((2-(2,4-dioxotetrahydropyrimidin-1(2H)-yl)-1-oxoisoindolin-5-yl)methyl)piperazin-1-yl)benzyl)-1H-pyrazol-4-yl)-9-methyl-6-oxo-6,7,8,9-tetrahydropyrido[3′,2′: 4,5]pyrrolo[1,2-a]pyrazine-2-carboxamide]
inhibition at 0.01 µM ([1]; Homo sapiens, WSUDLCL2, 10 nM, read-out: Inhibition Rate at 10 nM (%)): 5 to 10%
inhibition at 0.5 µM ([1]; Homo sapiens, WSUDLCL2, 500 nM, read-out: Inhibition Rate at 500 nM (%)): 40 to 50%
inhibition at 0.01 µM ([3]; MV-4-11, 10 nM): 5 to 10%
inhibition at 0.5 µM ([3]; MV-4-11, 500 nM): 70 to 80%
inhibition at 0.01 µM ([4]; Homo sapiens, MOLT-4, Molt-4, 10 nM, Table IN2, read-out: Inhibition Rate at 10 nM (%)): -5 to 0%
inhibition at 0.5 µM ([4]; Homo sapiens, MOLT-4, Molt-4, 500 nM, Table IN2, read-out: Inhibition Rate at 500 nM (%)): 30 to 50%

Structure (SMILES): CC(C)CCN1c2nc(Nc3cc(F)c(O)c(F)c3)ncc2N(C)C(=O)C1C (stereo not drawn) [BI-D1870, reference compound]
Inhibition Rate at 10 nM (%) ([1]; 10 nM): INd1 (0% < INd1 < 5%)
Inhibition Rate at 500 nM (%) ([1]; 500 nM): INd5 (20% ≤ INd5 < 30%)
Inhibition Rate at 10 nM (%) ([3]; MV-4-11, 10 nM): INa3 (−5% ≤ INa3 ≤ 0%)
Inhibition Rate at 500 nM (%) ([3]; MV-4-11, 500 nM): INa7 (20% ≤ INa7 < 30%)
Inhibition Rate at 10 nM (%) ([4]; 10 nM, Table IN2): INb2 (−15% < INb2 < −5%)
Inhibition Rate at 10 nM (%) ([4]; 10 nM, Table IN3): INc1 (0% < INcl < 5%)
Inhibition Rate at 500 nM (%) ([4]; 500 nM, Table IN2): INb5 (5% ≤ INb5 < 10%)
Inhibition Rate at 500 nM (%) ([4]; 500 nM, Table IN3): INc3 (10% ≤ INc3 < 15%)

Inhibition Rate at 0.5 μM (%) ([2]; 0.5 μM): a (0% < a ≤ 10%)
Inhibition Rate at 2 μM (%) ([2]; 2 μM): a (0% < a ≤ 10%)
IC50 ([6]; Table IB1, ALK inhibitor-based, read-out: Inhibitory activity (IC50, nM) on tumor cell proliferation, SR): 1000 to 5000 nM
Structure (SMILES): CCc1cc2c(cc1N1CCC(N3CCOCC3)CC1)C(C)(C)c1[nH]c3cc(C#N)ccc3c1C2=O [alectinib, Alectinib, reference compound]
inhibition at 0.01 µM ([5]; H2228, 10 nM, read-out: Inhibition Rate at 10 nM (%)): 5 to 10%
inhibition at 0.5 µM ([5]; H2228, 500 nM, read-out: Inhibition Rate at 500 nM (%)): 20 to 30%
Inhibition Rate at 10 nM (%) ([6]; Table IB2, ALK inhibitor-based, 10 nM): IBa4 (15% ≤ IBa4 < 20%)
Inhibition Rate at 500 nM (%) ([6]; Table IB2, ALK inhibitor-based, 500 nM): IBa10 (80% ≤ IBa10 < 90%)
inhibition at 0.01 µM ([3]; Table IB2, ALK inhibitor-based, MV-4-11, 10 nM, 96 hours): 5 to 10%
inhibition at 0.5 µM ([3]; Table IB2, ALK inhibitor-based, MV-4-11, 500 nM, 96 hours): 30 to 45%

IC50 [7]: > 10000 nM
IC50 [8]: > 10000 nM
IC50 [9]: > 10000 nM
IC50 [10]: > 10000 nM
Structure (SMILES): C=CC(=O)N1CCC(c2ccc(C(N)=O)c(-c3ccc(Oc4ccccc4)cc3)n2)CC1 [Orelabrutinib, reference compound]
IC50 [11]: > 10000 nM
